# Results published in patent US20090220562A1, “Osteogenic and anti-adipogenic oxysterols” (priority 2005, published 2009).
# B1: BMP7: bone morphogenic protein 7 (protein, UniProt P18075 293-431, looked up)
# Bone morphogenetic protein 7: STGSKQRSQNRSKTPKNQEALRMANVAENSSSDQRQACKKHELYVSFRDLGWQDWIIAPEGYAAYYCEGECAFPLNSYMNATNHAIVQTLVHFINPETVPKPCCAPTQLNAISVLYFDDSSNVILKKYRNMVVRACGCH
# How the values were obtained:
# Type in all cases: cell-based, mouse
# marrow stromal cells = experiment: Osteogenic differentiation of marrow stromal cells (marker not specified: ALP activity, osteocalcin mRNA, mineral formation)
# Procedure: The purpose of the study was to identify other osteogenic and anti-adipogenic oxysterols based on the chemical structure of previously identified oxysterols. The ability of such candidate oxysterol molecules to induce the formation of osteoblastic cells in cultures of marrow stromal cells (which are progenitors of osteoblastic cells that make bone) were tested. In order to assess osteogenic differentiation of cells, one or more markers of osteogenic differentiation were measured in untreated cells and cells treated with the test oxysterols. These markers included: alkaline phosphatase activity, osteocalcin mRNA expression and mineral formation in cultures of marrow stromal cells. Activation of either one or more than one marker by a single or combination oxysterols is indicative of their osteogenic property.
# [1] = system: M2-10B4 marrow stromal cells; experiment: Alkaline phosphatase (ALP) activity assay on whole cell extracts of M2-10B4 marrow stromal cells; details: for effect on oxysterol-induced alkaline phosphatase activity: 22R+20S (RS), pretreatment with SC-560 10 μM, ACA 25 μM, AACOCF3 20 μM or PD98059 20 μM, 3 days; for reversal of the effects of COX-1 and PLA2 inhibitors on oxysterol-induced alkaline phosphatase activity: 1 μM PGE2, 25 μM arachidonic acid, data not shown
# Procedure: (§1) Cells: M2-10B4 mouse marrow stromal cell line obtained from American Type Culture Collection (ATCC, Rockville, Md., U.S.A.) was derived from bone marrow stromal cells of a (C57BL/6J x C3H/HeJ) Fl mouse, and support human and murine myelopoiesis in long-term cultures (as per ATCC) and have the ability to differentiate into osteoblastic and adipocytic cells. Unless specified, these cells were cultured in RPMI 1640 containing 10% heat-inactivated FBS, and supplemented with 1 mM sodium pyruvate, 100 U/ml penicillin, and 100 U/ml streptomycin (all from Irvine Scientific).
# Cells were always treated at 90% confluence. […]
# Next, a combination of 22R and 20S oxysterols (RS, 2.5 μM each) were added in the presence or absence of SC as indicated. After 3 days, ALP activity was measured as described earlier. […] (B) M2 cells were treated as described in (A) and after 10 days matrix mineralization in cultures was quantified by a ^45Ca incorporation assay as described earlier. […] (C) M2 cells were pretreated with 20 μM SC for 4 hours, followed by the addition of RS in the presence or absence of SC as described above. After 8 days, total RNA was isolated and analyzed for osteocalcin (Osc) and […] expression by Northern blotting as previously described. Data from densitometric analysis of the Northern blot is shown in (D) as the average of duplicate samples, normalized to 18S rRNA. (E) M2 cells at confluence were pretreated for 2 hours with control vehicle (C), or PLA2 inhibitors ACA (25 μM) and AACOCF3 (AAC, 20 μM), in osteogenic medium. Next, a combination of 22R and 20S oxysterols (RS, 2.5 μM) was added in the presence or absence of the inhibitors as indicated. After 3 days, ALP activity was measured as previously described. […] (F) M2 cells were treated as described in (E). After 10 days, matrix mineralization in cultures was quantified using a ^45Ca incorporation assay as previously described. […]
# [2] = system: M2-10B4 marrow stromal cells; experiment: Matrix mineralization (45Ca incorporation assay, von Kossa staining) in M2-10B4 marrow stromal cells; details: for effect on oxysterol-induced mineralization: 22R+20S (RS), SC-560 10 μM, ACA 25 μM, AACOCF3 20 μM or PD98059 20 μM, 10 days
# Procedure: as §1
# Von Kossa and oil red O staining—Matrix mineralization in cell monolayers was detected by silver nitrate staining as previously described. Oil red O staining for detection of adipocytes was performed as previously described.
# ^45Ca incorporation assay—Matrix mineralization in cell monolayers was quantified using the ^45Ca incorporation assay as previously described.
# After 14 days, mineralization was identified by a von Kossa staining, which appears black. FIG. 3C is a depiction of von Kossa staining of M2 cells exposed to various conditions.
# After 14 days, matrix mineralization in cultures was quantified using a ^45Ca incorporation assay.
# (§2) Next, a combination of 22R and 20S oxysterols (RS, 2.5 μM each) were added in the presence or absence of SC as indicated. After 3 days, ALP activity was measured as described earlier. […] (B) M2 cells were treated as described in (A) and after 10 days matrix mineralization in cultures was quantified by a ^45Ca incorporation assay as described earlier. […] (C) M2 cells were pretreated with 20 μM SC for 4 hours, followed by the addition of RS in the presence or absence of SC as described above. After 8 days, total RNA was isolated and analyzed for osteocalcin (Osc) and […] expression by Northern blotting as previously described. Data from densitometric analysis of the Northern blot is shown in (D) as the average of duplicate samples, normalized to 18S rRNA. (E) M2 cells at confluence were pretreated for 2 hours with control vehicle (C), or PLA2 inhibitors ACA (25 μM) and AACOCF3 (AAC, 20 μM), in osteogenic medium. Next, a combination of 22R and 20S oxysterols (RS, 2.5 μM) was added in the presence or absence of the inhibitors as indicated. After 3 days, ALP activity was measured as previously described. […] (F) M2 cells were treated as described in (E). After 10 days, matrix mineralization in cultures was quantified using a ^45Ca incorporation assay as previously described. Results from a representative of three experiments are shown, reported as the mean of quadruplicate determinations ±SD, normalized to protein concentration (p<0.01 for RS vs. RS+ACA and RS+AAC).
# (A) M2 cells at confluence were pretreated for four hours with RPMI containing 1% FBS, followed by treatment with control vehicle or 5 μM 20S oxysterol for 1, 4, or 8 hours. Next total cell extracts were prepared and analyzed for levels of native or phosphorylated ERK (pERK) using specific antibodies as previously described. Data from a representative of four experiments are shown, each treatment shown in duplicate samples. (B) M2 cells at confluence were pretreated for 2 hours with control vehicle (C) or 20 μM PD98059 (PD) in osteogenic medium as previously described. Next, a combination of 22R and 20S oxysterols (RS, 5 μM each) were added to appropriate wells as indicated. After 10 days of incubation, matrix mineralization was quantified by the ^45Ca incorporation assay as previously described. […] (C) M2 cells at confluence were pretreated for 2 hours with 20 µM PD98059 (PD) in RPMI containing 5% FBS. Next, the cells were treated with control vehicle (C), 10 μM troglitazone (Tro), or 10 μM of 20S or 22S oxysterols, alone or in combination as indicated. After 10 days, adipocytes were visualized by oil Red O staining and quantified by light microscopy as previously described. […]
# osteocalcin mRNA = experiment: Northern blotting for osteocalcin mRNA in M2-10B4 cells; details: for synergy with oxysterols in induction of osteocalcin: BMP 50 ng/ml with 22S+20S (SS, 2.5 μM)
# Procedure: RNA isolation and Northern blot analysis—Following treatment of cells under appropriate experimental conditions, total RNA was isolated using the RNA isolation kit from Stratagene (La Jolla, Calif., U.S.A.). Total RNA ([…]) was run on a 1% agarose/formaldehyde gel and transferred to Duralon-UV membranes (Strategene, CA, U.S.A.) and cross-linked with UV light. The membranes were hybridized overnight at 60 degree C. with ^32P-labeled mouse osteocalcin cDNA probe, mouse lipoprotein lipase (LPL), mouse adipocyte protein 2 (aP^2) PCR-generated probes, human 28S or 18S rRNA probes obtained from Geneka Biotechnology (Montreal, Quebec, Canada) and Maxim Biotech (San Francisco, Calif., U.S.A.), respectively. The PCR products were generated using primer sets synthesized by Invitrogen (Carlsbad, Calif., U.S.A.) with the following specifications: mouse aP2 gene (accession no. M13261); sense (75-95) 5′-[…]-3′, antisense (362-383) 5′-[…]-3′, generating a PCR product of 309 base pairs. Mouse LPL (accession no. XM—134193); sense (1038-1058) 5′-[…]-3′, antisense (1816-1836) 5′-[…]-3′, generating a PCR product of 799 base pairs. The PCR products were gel-purified and sequenced by the UCLA sequencing core, showing the highest similarity to their respective GenBank entries. Following hybridization, the blots were washed twice at room temperature with 2×SSC+0.1% SDS, and then twice at 60 degree C. with 0.5×SSC+0.1% SDS, and exposed to X-ray film. The extent of gene induction was determined by densitometry.
# After 4 and 8 days, total RNA from duplicate samples was isolated and analyzed for osteocalcin (Osc) and 28S rRNA expression by Northern blotting as described. FIG. 3E is a radiogram of Northern blotting for osteocalcin mRNA in M2 cells exposed to a control or combination of oxysterols for 4 or 8 days. FIG. 3F is a bar graph depicting the relative demsometric units of osteocalcin mRNA in M2 cells exposed to a control or combination of oxysterols for 4 -or 8 days. Data from densitometric analysis of the Northern blot is shown in (F) as the average of duplicate samples, normalized to 28S rRNA.
# as §2
# ALP activity was measured after 2 days, as described. […] (B) M2 cells were treated as described in (A). After 10 days, matrix mineralization in cultures was quantified using a ^45Ca incorporation assay as described. […] (C) M2 cells were treated under similar conditions as those described above. […]
# [3] = pretreatment, cyclopamine 1-10 μM, DKK-1 1 μg/ml
molecule,measurement,setting,value
C[C@@H](CO)CCC[C@@H](C)[C@H]1CC[C@H]2[C@@H]3CC=C4C[C@@H](O)CC[C@]4(C)[C@H]3CC[C@]12C [26-hydroxycholesterol],"osteogenic property, alone or in combination with originally described oxysterols",marrow stromal cells,osteoinductive
BMP14: bone morphogenic protein 14,synergy with oxysterols in induction of alkaline phosphatase activity,[1],synergistically induced
same,synergy with oxysterols in induction of mineralization,[2],synergistically induced
same,synergy with oxysterols in induction of osteocalcin,osteocalcin mRNA; eight days,synergistic induction
"COc1ccc(-n2nc(C(F)(F)F)cc2-c2ccc(Cl)cc2)cc1 [SC-560, reference compound]",effect on oxysterol-induced mineralization,[2],inhibited
same,effect on oxysterol-induced osteocalcin gene expression,"osteocalcin mRNA; 22R+20S (RS), SC-560 20 μM, 8 days, PD98059 (data not shown)",inhibited
"COc1cccc(-c2cc(=O)c3ccccc3o2)c1N [PD98059, reference compound]",effect on oxysterol-induced mineralization,[2],inhibited
"CCCCCc1ccc(/C=C/C(=O)Nc2ccccc2C(=O)O)cc1 [ACA, reference compound]",effect on oxysterol-induced alkaline phosphatase activity,[1],inhibited
same,effect on oxysterol-induced mineralization,[2],inhibited
"C[C@]12CC[C@H]3[C@@H](CCC4=C[C@H](O)CC[C@@H]43)[C@@H]1CC[C@@H]2O [estren, reference compound]",osteogenic properties,marrow stromal cells,did not have any osteogenic properties
"O=S(=O)(c1ccccc1)N(CC(F)(F)F)c1ccc(C(O)(C(F)(F)F)C(F)(F)F)cc1 [TO-901317, reference compound]",effect on alkaline phosphatase activity,[1]; 1-10 μM,dose-dependent inhibition
same,induction of mineralization,[2]; after 10 days,did not induce
same,induction of osteocalcin gene expression,osteocalcin mRNA; after 10 days,did not induce
"C[C@]12CC[C@@H]3c4ccc(O)cc4CC[C@H]3[C@@H]1CC[C@@H]2O [beta-estradiol, reference compound]",osteogenic properties,marrow stromal cells,did not have any osteogenic properties
"CCCCC/C=C\C/C=C\C/C=C\C/C=C\CCCC(=O)C(F)(F)F [AACOCF3, reference compound]",effect on oxysterol-induced alkaline phosphatase activity,[1],inhibited
same,effect on oxysterol-induced mineralization,[2],inhibited
"CC(C)CCC[C@@H](C)[C@H]1CC[C@H]2[C@@H]3[C@H](O)C=C4C[C@@H](O)CC[C@]4(C)[C@H]3CC[C@]12C [7alpha-hydroxycholesterol, reference compound]",levels of osteocalcin mRNA relative to the control,"osteocalcin mRNA; 5 μM, eight days, M2-10B4",did not appear to significantly affect
"CS(=O)(=O)Nc1ccc([N+](=O)[O-])cc1OC1CCCCC1 [NS-398, reference compound]",inhibition of the osteogenic effects of oxysterol combinations,"marrow stromal cells; 22R+20S and 22S+20S, SC-560 1-20 μM, NS-398 20 μM (highest non-toxic dose)",negligible inhibitory effects
"CCCCC[C@H](O)/C=C/[C@H]1[C@H](O)CC(=O)[C@@H]1C/C=C\CCCC(=O)O [PGE2, prostaglandin E2, reference compound]",reversal of the effects of COX-1 and PLA2 inhibitors on oxysterol-induced alkaline phosphatase activity,[1],reversed
"CCCCC/C=C\C/C=C\C/C=C\C/C=C\CCCC(=O)O [arachidonic acid, reference compound]",reversal of the effects of COX-1 and PLA2 inhibitors on oxysterol-induced alkaline phosphatase activity,[1],reversed
DKK-1: Wnt signaling inhibitor,effect on SS-induced alkaline phosphatase (ALP) activity,[1]; [3],inhibited
same,effect on SS-induced mineralization,[2]; [3],inhibited
same,effect on SS-induced osteocalcin mRNA expression,osteocalcin mRNA; [3],inhibited
B1,synergy with oxysterols in induction of alkaline phosphatase activity,[1],synergistically induced
same,synergy with oxysterols in induction of mineralization,[2],synergistically induced
same,synergy with oxysterols in induction of osteocalcin,osteocalcin mRNA; eight days,synergistic induction
